Source: patent US20130310454A1, “PHARMACEUTICAL COMPOSITION COMPRISING EXTRACT OF LONICERA JAPONICA FOR PREVENTION AND TREATMENT OF GASTROESOPHAGEAL REFLUX DISEASE” (priority 2010, published 2013)

What was measured:
[1] = tested on: rat model of gastroesophageal reflux disease; experiment: Effect on esophagus lesion in rat model of gastroesophageal reflux disease; type: in vivo; settings: 10 mg/kg oral in 0.5% CMC, 1 h before reflux induction; esophagus examined 6 h after operation; SD male rats
From the text: In order to determine the therapeutic effect on acute/chronic gastroesophageal reflux disease by the inventive Lonicerae Flos fraction or the compound represented by Formula 1 or 2, the method for measuring the therapeutic effect on gastroesophageal reflux disease (Nakamura K et al; Jpn. J. Pharmacol., 32(3), 445-456, 1982: Okabe S, et al; Jpn. J. Pharmacol., 69(4), 317-323, 1995) was applied to the present experiments.
In order to determine the therapeutic effect of the inventive Lonicerae Flos extract, the inventive Lonicerae Flos fraction, or the compound represented by Formula 1 or 2 in a rat model of gastroesophageal reflux disease, Spraugue-Dawley(SD)-based male rats aged 7 weeks were fasted for 24 hours and supplied with water in a sufficient amount. The rats were weighed, and were orally administered with omeprazole (Sigma-Aldrich) as a control drug and with Lonicerae Flos extract/fraction as a test drug, which are suspended in a 0.5% CMC (Carboxymethyl cellulose) solution, one hour before induction of reflux. For reflux induction, the abdomen of the rat was opened, and a pylorus region between stomach and duodenum was ligated. Then, a stomach-esophagus sphincter between esophagus and stomach was injured by longitudinal incision of 1 cm so that gastric acid can be flowed backward due to abnormal relaxation of the sphincter. Also, a transition zone between forestomach and glandular portion was ligated by thread, and the abdomen was sutured by cotton thread. 6 hours after the completion of the operation, inhalation anesthesia was performed, and the esophagus was extracted. Then, the size of an esophagus lesion and the extent of esophagitis were observed. In Table 1, the esophagus lesion inhibition ratio (%) of a test group administered with the inventive test material, with respect to a control group, is noted.

[2] = tested on: lipid peroxidation of esophagus tissue; experiment: Lipid peroxide (malondialdehyde) of esophagus tissue in rat model of gastroesophageal reflux disease; type: in vivo; settings: esophagus mucous membrane from Experimental Example 1 (10 mg/kg oral); malondialdehyde by TBA, 532 nm
Method: A test for finding out the inhibition of lipid peroxidation by the inventive Lonicerae Flos extract, the inventive Lonicerae Flos fraction, or a compound isolated from the fraction (3,5-di-O-caffeoylquinic acid or 4,5-di-O-caffeoylquinic acid) was carried out. the esophagus mucous membrane extracted in Experimental Example 1 was taken out, and added in 1 ml of tris-hydrochloric acid buffer solution (pH 7.0), followed by ultrasonic grinding. After centrifugation (600×g, 4° C.) for 5 minutes, 0.3 ml of supernatant was added with 0.9 ml of trichloroacetic acid (8%). Then, after centrifugation (10,000×g, 4° C.) for 5 minutes, 1 ml of supernatant was added with 0.25 ml of TBA(1%), and then with 2 ml of n-butanol. Then, after centrifugation (3,000×g , 4° C.) for 5 minutes, on 1 ml of butanol fraction, the absorbency was measured at 532 nm. As a reference material, malonaldehyde bis-dimethyl acetal was used. The result was expressed as nmol/mg protein, and protein quantitative analysis was carried out by Bradford assay.

TNF-α = experiment: TNF-alpha level in esophagus tissue (ELISA), anti-inflammatory effect; type: in vivo, rat; settings: 10 mg/kg; for inflammation inhibition ratio: calculated from TNF-alpha of test, control and normal groups; for TNF-alpha: esophagus tissue of reflux rats, normal group 120.3, control group 325.2
Method: On the Lonicerae Flos extract, the Lonicerae Flos fraction, or a compound isolated from the fraction (3,5-di-O-caffeoylquinic acid or 4,5-di-O-caffeoylquinic acid), having a therapeutic effect in a rat model of gastroesophageal reflux disease, in order to measure an anti-inflammatory effect within esophagus tissue, a level of Tumor necrosis factor-alpha(TNF-α) playing an important role in inflammatory disease mechanism was measured within esophagus tissue of a rat (Nippon Rinsho, 68(5), 819-822, 2010). As a kit for this measurement, rat TNF-α ELISA kit (Cat No:88-7340, eBioscience) was used. Each of esophagus tissues of all test groups, obtained from <Experimental Example 1>was introduced into homogenizing buffer (10×)(pH 7.4: 1.15% KCl, 50 mM Tris-HCl, 1 mM EDTA), followed by grinding by a homogenizer. Then, after centrifugation at 3,000 rpm or more for 10 minutes, the homogenized tissue liquid (supernatant) was separated, and then stored in a deep freezer for the use in the experiment. After all antigen-antibody reactions were completed, the absorbency was measured by ELISA Reader (BIORAD) at 450 nm, and then the amount of TNF-α in esophagus tissue was expressed by using a reference curve of absorbency. The inflammation inhibition ratio (%) of a test material was calculated by the following equation. Also, the anti-inflammatory effect by the Lonicerae Flos extract in a rat model of gastroesophageal reflux disease is noted in Table 2.
Inflammation inhibition ratio (%)=1−((test group-normal group)/(control group-normal group))×100

[3] = tested on: Hexosamine of esophagus mucous membrane; experiment: Amount of hexosamine in esophagus tissue; type: in vivo, rat; settings: esophagus tissue of reflux rats; for Hexosamine: 10 mg/kg, normal group 1101.3, control group 925.3; for content of hexosamine compared to that of a control group: doses as in Table 3
Method: (§1) On the Lonicerae Flos extract, the Lonicerae Flos fraction, or a compound isolated from the fraction (3,5-di-O-caffeoylquinic acid or 4,5-di-O-caffeoylquinic acid), having a therapeutic effect in a rat model of gastroesophageal reflux disease, the amounts of Hexosamine and Sialic acid constituting esophagus mucous membrane of esophagus tissue were measured.
Esophagus tissues of all test groups, obtained from <Experimental Example 1>, were immersed in ethanol, and then left in acetone for 2 days, and in ether for 1 day, followed by cleaning and drying. The test sample was weighed, added with 5 ml of 4N HCl solution, and hydrolyzed by being heated at 100° C. for 9 hours. Then, the resultant product was cooled at room temperature, and filtered. 0.5 ml of filtrate was added with 0.5 ml of 4N NaOH solution for neutralization, and then added with 1 ml of acetylacetone solution, followed by shaking. Then, the resultant product was heated at 100° C. for 20 minutes, and cooled, and then added with 5 ml of isoamylalcohol, followed by shaking for 2 minutes. After centrifugation at 3,000 rpm for 10 minutes, 2 ml of supernatant was collected. The supernatant was added with 0.5 ml of a color agent, and left for 15 minutes, and then its absorbency was measured at 530 nm. From a calibration curve obtained by using Glucosamine, the content of hexosamine was calculated.

[4] = tested on: Sialic acid of esophagus mucous membrane; experiment: Amount of sialic acid in esophagus tissue; type: in vivo, rat; settings: esophagus tissue of reflux rats; for Sialic acid: 10 mg/kg, normal group 125.2, control group 95.2; for content of sialic acid compared to that of a control group: doses as in Table 3
Method: as §1
Esophagus tissues of all test groups, obtained from <Experimental Example 1>, were immersed in ethanol, and then left in acetone for 2 days, and in ether for 1 day, followed by cleaning and drying. The test sample was weighed, added with 5 ml of 0.1N H2SO4 solution, and hydrolyzed by being heated at 80° C. for 1 hour. Then, the resultant product was cooled at room temperature, and filtered. 0.2 ml of filtrate was mixed with 0.1 ml of 0.2M periodate solution, and left at room temperature for 20 minutes. Then, the resultant solution was mixed with 1 ml of 10% arsenite solution until a yellowish brown color disappeared. 3 ml of 0.6% TBA solution was added thereto, followed by mixing. The resultant product was covered with a cap, and heated at 100° C. for 15 minutes, cooled, and left in a cool bath for 5 minutes, followed by cen- trifugation at 3,000 rpm for 10 minutes. A supernatant was collected, and its absorbency was measured at 549nm. From a calibration curve obtained by using N-acetylneuraminic acid, the content of Sialic acid was calculated.

[5] = tested on: SPF SD-based female/male rats; experiment: Toxicity test of acute oral administration; type: in vivo; settings: single oral dose 1.0 g/kg or 2.0 g/kg in 0.5% CMC; 5 female and 5 male SD rats; autopsy after 7 days; safe up to 2.0 g/kg
Method: By applying the Lonicerae Flos extract of Example 1, fractions of Examples 4 and 5, and 3,5-di-O-caffeoylquinic acid and 4,5-di-O-caffeoylquinic acid from Example 6, to SPF (specific pathogen free) SD-based female/male rats aged 6 weeks, an acute toxicity test was carried out.
Female 5 rats and male 5 rats of each test group were orally administered with the test materials from Examples in a dose of 1.0 g/kg or 2.0 g/kg. The test materials were suspended in 0.5% CMC (Carboxymethyl cellulose) solution before the administration. When the test materials were administered, mortality, clinical symptoms, and weight changes of animals were observed. 7 days after the administration, through autopsy, a hematologic examination and a blood chemical test were carried out. Then, with the naked eye, it was observed if there was abnormality in abdominal cavity organs and thoracic cage organs. […] Also, through weight measurement, a blood test, a blood chemical test, and autopsy results, an abnormal change was not observed.

SMILES	esophagus lesion inhibition ratio with respect to control group [1]	lipid peroxidation inhibiting ratio [2]	inflammation inhibition ratio (TNF-α)	TNF-alpha (TNF-α)	Hexosamine [3]	content of hexosamine compared to that of a control group [3]	Sialic acid [4]	content of sialic acid compared to that of a control group [4]	acute oral toxicity (mortality, clinical symptoms, weight changes, blood tests, autopsy) [5]
O=C(/C=C/c1ccc(O)c(O)c1)OC1CC(O)(C(=O)O)CC(OC(=O)/C=C/c2ccc(O)c(O)c2)C1O (centres unmarked) [3,5-di-CQA, 3,5-di-O-caffeoylquinic acid]	90%	49.1%	87.8%	145.3 pg/mg Tissue weight	1445.2 μg/100 mg dry tissue	significantly increased	155.3 μg/100 mg dry tissue	significantly increased	not showing toxicity
O=C(/C=C/c1ccc(O)c(O)c1)O[C@H]1[C@H](O)C[C@](O)(C(=O)O)C[C@H]1OC(=O)/C=C/c1ccc(O)c(O)c1 [4,5-di-CQA, 4,5-di-O-caffeoylquinic acid]	81%	50.2%	85.5%	150.1 pg/mg Tissue weight	1380.2 μg/100 mg dry tissue	significantly increased	148.1 μg/100 mg dry tissue	significantly increased	–
COc1ccc2[nH]c([S+]([O-])Cc3ncc(C)c(OC)c3C)nc2c1 (centres unmarked) [omeprazole, reference compound]	83%	53.9%	80.5%	160.2 pg/mg Tissue weight	1176.3 μg/100 mg dry tissue	–	132.2 μg/100 mg dry tissue	–	–
